Data from PMC10514295, “Imidazo[1,2-c]quinazolines as a novel and potent scaffold of α-glucosidase inhibitors: design, synthesis, biological evaluations, and in silico studies” (Scientific Reports, 2023).

Columns and labels:
[1] = molecular target: T1, Saccharomyces cerevisiae α-glucosidase (Saccharomyces cerevisiae, UniProt P53341); assay: biochemical; conditions: mean ± SD, at least three experiments; substrate p-nitrophenyl glucopyranoside, pH 6.8, 37 °C; read-out: IC50 (in vitro α-glucosidase inhibitory activity)
T1 construct: purchased Sigma-Aldrich
Method: The target substituted imidazo[1,2-c]quinazolines 6a–c and 11a–o were evaluated for their in vitro Saccharomyces cerevisiae α-glucosidase inhibitory activities to investigate the role of substituents on the imidazole moiety and the phenyl ring originated from benzaldehyde moieties.
α-Glucosidase enzyme ((EC3.2.1.20, Saccharomyces cerevisiae, 20 U mg^−1) and substrate (p-nitrophenyl glucopyranoside) were purchased from Sigma-Aldrich. Enzyme was prepared in potassium phosphate buffer (pH 6.8, 50 mM), as well as substituted benzo[4,5]imidazo[1,2-c]quinazoline 6a-c and highly-substituted imidazo[1,2-c]quinazolines 11a–o were dissolved in DMSO (10% final concentration). The various concentrations of these compounds ([…]), enzyme solution ([…]) and potassium phosphate buffer ([…]) were added in the 96-well plate and incubated at 37 °C for 10 min. Afterwards, the substrate ([…], 4 mM) was added to the mentioned mixture and allowed to incubate at 37 °C for 20 min. […] The percentage of enzyme inhibition was calculated using Eq. (6) and IC50 values were obtained from non-linear regression curve using the Logit method.6 %Inhibition=Abscontrol-Abssample/Abscontrol×100

α-glucosidase [2] = molecular target: T2, α-glucosidase (Saccharomyces cerevisiae, UniProt P53341); assay: Circular dichroism spectroscopy, secondary structure content of the enzyme; set-up: purchased Sigma-Aldrich; conditions: inhibitor 12.4 μM
Method: The difference between the absorption of right and left circularly polarized light is measured in circular dichroism spectroscopy (CD) in order to reveal the chiral environment around amino acid residues. The CD spectrum in the far ultraviolet region ranged from 190 to 240 nm is mainly used to provide valuable information about the arrangement of protein bonds and secondary structure of the proteins in dilute solutions. There are several principal conformations like α-helix, extended β structure (or β-sheet), β-turn, and random coil (which are unordered structures). They are characterized as follow: α-helix structures by negative CD bands at 222 and 208 nm and a positive CD band at approximately 190 nm; β-sheet structures by a negative CD band in the region of 210–220 nm; β-turn structures by a negative CD band between 180 and 190 nm; and the spectra of random coil by a characteristic negative CD band in region of 200 nm[49],[50].
To study the impact of imidazo[1,2-c]quinazoline 11j on the secondary structure of α-glucosidase (Fig. 4b), the CD spectra (180–250 nm) was measured and analyzed using the CDNN software to be compared with the native enzyme (Fig. 4a). […] Moreover, this compound can change the secondary structure of α-glucosidase, resulting to inhibit its performance.

α-glucosidase [3] = molecular target: T2, α-glucosidase; assay: Fluorescence spectroscopy (quenching) measurements; format: binding; set-up: purchased Sigma-Aldrich
Method: In present study, fluorescence spectroscopy measurement was performed between imidazo[1,2-c]quinazoline 11j and the active site of enzyme using a Synergy HTX multi-mode reader (Biotek Instruments, Winooski, VT, USA) equipped with a quartz cuvette of 10 mm. The excitation wavelength was 280 nm, and the emission spectra were reported at five different temperatures in the range from 300 to 450 nm with 10 accumulations for each collection point. The emission spectrum was adjusted for the background fluorescence from the buffer solution and for the inner filter effect promoted by the inhibitors (Fig. 5).
There are two types of fluorescence quenching: dynamic and static. Dynamic quenching arises from the collisional encounter between the fluorophore (tryptophan residues) and the quencher (inhibitor). […] Therefore, the biding parameters can be determined as follow:
The reaction is determined as P + D → DnP in which P is the protein, D is the drug molecule (inhibitor), and DnP is the new complex molecule. The binding constant for this complex for this complex, denoted as KA, is calculated using Eq. (1). […] Since the number of the binding site of protein and drug is n and 1, respectively, the equivalent concentration of the complex DnP is n[DnP]. Moreover, the equivalent concentration of the protein is n[P], and the equivalent concentration of the drug is [D]:1 KA=nDnP/DnP
The total concentration of protein is [Pt], and the total concentration of the drug is [Dt]; therefore, [Pt] = [Pf] + [DnP] and [Df] = [Dt]−n[DnP]. Since protein (P) is the only fluorescence in present study, thus:2 F0/F=Pt/Pf
F and F0 are the fluorescence intensity of protein in the presence and absence of inhibitor, respectively. Therefore, the relationship between the fluorescence intensity and the total concentration of the drug could be deduced:3 F0/F=KADtF0/F0-F-n KAPt
As the total concentration of protein was kept at a constant value (at 46 nM), while the total concentration of the drug was changed. Using the Eq. (3), a plot of F0/F Vs. [Dt] F0/(F0−F) was obtained, as depicted in Fig. 6.
To this aim, different solutions containing different concentrations (0 to 1.0 µM) of the inhibitor and α-glucosidase (3 ml, 0.1 U ml^−1) were held for 10 min to equilibrate before measurements. Moreover, the fluorescence of the buffer containing compound 11j in the absence of the enzyme were subtracted as the background fluorescence. Afterwards, at the excitation wavelength of 280 nm, the fluorescence emission spectra were measured from 300 to 450 nm using a Synergy HTX multi-mode reader (Biotek Instruments, Winooski, VT, USA) equipped with a 1.0 cm quartz cell holder.

α-glucosidase [4] = molecular target: T2, α-glucosidase; assay: Enzyme kinetic study (Lineweaver–Burk plot)
Method: [I] is the concentration of inhibitor.
Therefore, the slope of Lineweaver Burk plot is equal to:10 Slope=Km/Vmax1+I/KI
The Kmapp value is calculated by Eq. (6):11 Kmapp=Km1+I/KI
[I], Eq. (7) can be used for the calculation of KI[59],[60]:12 Kmapp=Km+Km/KII

α-glucosidase [5] = molecular target: T2, α-glucosidase; assay: Thermodynamic analysis of binding to α-glucosidase; set-up: purchased Sigma-Aldrich
Description: This fluorescent intensity data was plotted as a function of temperature and binding constants; therefore, thermodynamic profile including ΔG (free energy change), ΔH (enthalpy change), and ΔS (entropy change) could be computed to determine the type of non-covalent forces between imidazo[1,2-c]quinazoline 11j and binding site of α‑glucosidase. These forces between the protein and inhibitor can be categorized into four groups: hydrogen bond, van der Waals forces, electrostatic attraction, and hydrophobic interactions. To identify the type of interactions in present study, thermodynamic parameters must be calculated using following equations:4 lnKA2/KA1=ΔH/R1/T2-1/T1 5 ΔG=-RT ln KA=ΔH-TΔS
Already, there was some information including binding constants (KA2 = 36.6 × 10^4 and KA1 = 40.5 × 10^4) as well as initial and final temperatures (T1 = 20 ℃ (293 K) and T2 = 60 ℃ (333 K)). Therefore, using Eq. (4), ΔH is obtained − 2.17 (kJ mol^–1) and subsequently using Eq. (5), ΔG and ΔS values are calculated − 20.6 (kJ mol^–1) and 62.9 (J mol^–1 K^–1), respectively.
Considering the sign of these thermodynamic parameters, the type of non-covalent force could be determined as follow: (1) ΔH > 0, ΔS > 0, hydrophobic interactions; (2) ΔH < 0, ΔS > 0, van der Waals forces; (3) ΔH < 0, ΔS < 0, hydrogen bond and van der Waals interactions; and (4) ΔH < 0, ΔS > 0, electrostatic interactions.

T1 sequence (P53341 whole entry): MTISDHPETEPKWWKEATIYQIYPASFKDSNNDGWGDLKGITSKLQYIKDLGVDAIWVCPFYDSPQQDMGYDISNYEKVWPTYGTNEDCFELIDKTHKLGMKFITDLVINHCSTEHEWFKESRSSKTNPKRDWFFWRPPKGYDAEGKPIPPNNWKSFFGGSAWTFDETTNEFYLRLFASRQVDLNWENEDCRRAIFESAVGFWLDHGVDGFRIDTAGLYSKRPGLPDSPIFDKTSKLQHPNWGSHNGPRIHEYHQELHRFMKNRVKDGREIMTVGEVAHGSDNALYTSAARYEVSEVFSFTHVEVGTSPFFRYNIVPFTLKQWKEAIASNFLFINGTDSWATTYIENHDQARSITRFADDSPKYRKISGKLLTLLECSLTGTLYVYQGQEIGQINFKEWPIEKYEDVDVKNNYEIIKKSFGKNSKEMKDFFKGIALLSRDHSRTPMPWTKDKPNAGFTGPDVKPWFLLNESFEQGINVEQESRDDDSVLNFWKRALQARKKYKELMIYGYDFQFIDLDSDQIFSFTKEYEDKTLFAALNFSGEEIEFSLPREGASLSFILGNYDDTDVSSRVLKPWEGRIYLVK
T2 sequence (P53341 whole entry): as above

SMILES	IC50 [1]	other results
c1ccc(-c2nc3ccccc3c3nc4ccccc4n23)cc1 [6a, 6-phenylbenzo[4,5]imidazo[1,2-c]quinazoline]	256.48 ± 0.14 µM	–
Clc1ccc(-c2nc3ccccc3c3nc4ccccc4n23)cc1 [6b, 6-(4-chlorophenyl)benzo[4,5]imidazo[1,2-c]quinazoline]	308.33 ± 0.06 µM	–
COc1ccc(-c2nc3ccccc3c3nc4ccccc4n23)cc1 [6c, 6-(4-methoxyphenyl)benzo[4,5]imidazo[1,2-c]quinazoline]	124.3 ± 0.37 µM	–
c1ccc(-c2nc3c4ccccc4nc(-c4ccccc4)n3c2-c2ccccc2)cc1 [11a, 2,3,5-triphenylimidazo[1,2-c]quinazoline]	209.15 ± 0.04 µM	–
Clc1ccc(-c2nc3ccccc3c3nc(-c4ccccc4)c(-c4ccccc4)n23)cc1 [11b, 5-(4-chlorophenyl)-2,3-diphenylimidazo[1,2-c]quinazoline]	273.28 ± 0.09 µM	–
Clc1cccc(-c2nc3ccccc3c3nc(-c4ccccc4)c(-c4ccccc4)n23)c1 [11c, 5-(3-chlorophenyl)-2,3-diphenylimidazo[1,2-c]quinazoline]	246.49 ± 0.18 µM	–
Clc1ccccc1-c1nc2ccccc2c2nc(-c3ccccc3)c(-c3ccccc3)n12 [11d, 5-(2-chlorophenyl)-2,3-diphenylimidazo[1,2-c]quinazoline]	253.1 ± 0.26 µM	–
Cc1ccc(-c2nc3ccccc3c3nc(-c4ccccc4)c(-c4ccccc4)n23)cc1 [11e, 5-(4-methylphenyl)-2,3-diphenylimidazo[1,2-c]quinazoline]	124.5 ± 0.29 µM	–
CN(C)c1ccc(-c2nc3ccccc3c3nc(-c4ccccc4)c(-c4ccccc4)n23)cc1 [11f, 4-(2,3-diphenylimidazo[1,2-c]quinazolin-5-yl)-N,N-dimethylaniline]	168.36 ± 0.15 µM	–
COc1ccc(-c2nc3ccccc3c3nc(-c4ccccc4)c(-c4ccccc4)n23)cc1 [11g, 5-(4-methoxyphenyl)-2,3-diphenylimidazo[1,2-c]quinazoline]	82.64 ± 0.03 µM	–
COc1cccc(-c2nc3ccccc3c3nc(-c4ccccc4)c(-c4ccccc4)n23)c1 [11h, 5-(3-methoxyphenyl)-2,3-diphenylimidazo[1,2-c]quinazoline]	47.92 ± 0.18 µM	–
COc1ccccc1-c1nc2ccccc2c2nc(-c3ccccc3)c(-c3ccccc3)n12 [11i, 5-(2-methoxyphenyl)-2,3-diphenylimidazo[1,2-c]quinazoline]	24.25 ± 0.13 µM	–
COc1cccc(-c2nc3ccccc3c3nc(-c4ccccc4)c(-c4ccccc4)n23)c1OC [11j, 5-(2,3-dimethoxyphenyl)-2,3-diphenylimidazo[1,2-c]quinazoline]	–	α-Helix content of α-glucosidase (α-glucosidase [2]; native enzyme 28.8): 50.3%; ꞵ-Turn content of α-glucosidase (α-glucosidase [2]; native enzyme 28.8): 49.7%; Random coil content of α-glucosidase (α-glucosidase [2]; native enzyme 42.4): 0%; number of binding sites n (α-glucosidase [3]; 20 ℃): 0.3; binding constant KA (α-glucosidase [3]; 20 ℃, protein 46 nM): 40.5 × 10^4 L mol^–1 s^–1; binding constant KA (α-glucosidase [3]; 60 ℃): 36.6 × 10^4 L mol^–1 s^–1; fluorescence quenching mechanism (α-glucosidase [3]; tryptophan residues as fluorophores): static quenching; Ki (α-glucosidase [4]): 11 µM; type of inhibition (α-glucosidase [4]; Lineweaver–Burk plot: Km increased, Vmax did not change): competitive; ΔS (entropy change) (α-glucosidase [5]; Eq. (5)): 62.9 J mol^–1 K^–1; acting non-covalent force between inhibitor and enzyme (α-glucosidase [5]; from signs of ΔH and ΔS): electrostatic forces
COc1ccc(-c2nc3ccccc3c3nc(-c4ccccc4)c(-c4ccccc4)n23)c(OC)c1 [11k, 5-(2,4-dimethoxyphenyl)-2,3-diphenylimidazo[1,2-c]quinazoline]	14.32 ± 0.05 µM	–
COc1ccc(OC)c(-c2nc3ccccc3c3nc(-c4ccccc4)c(-c4ccccc4)n23)c1 [11l, 5-(2,5-dimethoxyphenyl)-2,3-diphenylimidazo[1,2-c]quinazoline]	64.29 ± 0.54 µM	–
COc1ccc(-c2nc3ccccc3c3nc(-c4ccccc4)c(-c4ccccc4)n23)cc1OC [11m, 5-(3,4-dimethoxyphenyl)-2,3-diphenylimidazo[1,2-c]quinazoline]	21.6 ± 0.32 µM	–
COc1cc(-c2nc3ccccc3c3nc(-c4ccccc4)c(-c4ccccc4)n23)cc(OC)c1OC [11n, 2,3-diphenyl-5-(3,4,5-trimethoxyphenyl)imidazo[1,2-c]quinazoline]	46.73 ± 0.07 µM	–
COc1cc(-c2nc3ccccc3c3nc(-c4ccccc4)c(-c4ccccc4)n23)cc(Br)c1OC [11o, 5-(3-bromo-4,5-dimethoxyphenyl)-2,3-diphenylimidazo[1,2-c]quinazoline]	154.9 ± 0.36 µM	–
